Experimental data published in patent publication US20030157704A1, “Reagents and methods for identifying and modulating expression of genes regulated by CDK inhibitors” (priority 2001, published 2003).

Assays:
NK4 promoter = assay: Luciferase assay in LuNK4p21 cell line (NK4 promoter-luciferase, IPTG-inducible p21); assay type: cell-based, human
Description: This assay was performed as follows. Cells were plated at a density of 40,000 cells/well in 12 well plates in 1 mL of media containing penicillin/streptomycin, glutamine and 10% fetal calf serum (FCS). After attachment, cells were treated with 50 μM IPTG or left untreated for different periods of time. Luciferase activity was then measured as described in Example 8 above. An additional aliquot was removed from the cell lysate to measure protein concentration using the Bio-Rad protein assay kit (Bradford assay). Luciferase activity for each sample was normalized to protein content and expressed as luciferase activity/μg protein.
Luciferase assays were performed substantially as described in Example 9. Luciferase activity was measured after 16 hrs of incubation with or without 50 μM IPTG, followed by an additional 20 hr treatment in the presence or in the absence of 20 mM sodium salicylate, 1 mM sulindac, or 10 mM aspirin. […] NSAID concentrations were based on the pharmacologic concentrations of these agents in the serum of patients required for their anti-inflammatory properties (Yin et al., 1998, ibid.).

CDK4 = CDK4 (UniProt P11802); assay: cell-based or functional assay
CDK6 = CDK6 (UniProt Q00534); assay: cell-based or functional assay
p21-inducible genes = assay: RT-PCR of endogenous p21-inducible genes in LuNK4p21 cells; assay type: cell-based, human
Description: To determine whether NFκB-inhibiting NSAID inhibited not only the induction of transcription from the NK4 promoter but also RNA expression of the endogenous p21-inducible genes, LuNK4p21 cells were plated at 125,000 cells per well in 6-well plates and were either untreated or treated with 50 μM IPTG for 48 hrs (the period of time required for maximal stimulation of p21-inducible genes; Chang et al., 2000, Proc. Natl. Acad. Sci. USA 97: 4291-4296), in the presence or in the absence of sulindac, at 250 μM, 500 μM or 1 mM concentrations. After this incubation, RNA was extracted from the cells using Qiagen RNeasy Mini Kit, and relative RNA levels of several p21-inducible genes were determined by reverse transcription-PCR (RT-PCR), essentially as described by Noonan et al. (1990, Proc. Natl. Acad. Sci. USA 87: 7160-7164), except that β-actin rather than β2-microglobulin was used for cDNA normalization. The PCR cycles were as follows: for the 1st cycle, 3 min for denaturation, 2 min for annealing and 2 min for extension, and the rest of cycles, 30 sec for denaturation; 30 sec for annealing; and 1 min for extension.

[1] = 25 μM NSAID for 20 hr after 16 hrs with 50 μM IPTG

CDK6, sequence (Q00534 whole entry): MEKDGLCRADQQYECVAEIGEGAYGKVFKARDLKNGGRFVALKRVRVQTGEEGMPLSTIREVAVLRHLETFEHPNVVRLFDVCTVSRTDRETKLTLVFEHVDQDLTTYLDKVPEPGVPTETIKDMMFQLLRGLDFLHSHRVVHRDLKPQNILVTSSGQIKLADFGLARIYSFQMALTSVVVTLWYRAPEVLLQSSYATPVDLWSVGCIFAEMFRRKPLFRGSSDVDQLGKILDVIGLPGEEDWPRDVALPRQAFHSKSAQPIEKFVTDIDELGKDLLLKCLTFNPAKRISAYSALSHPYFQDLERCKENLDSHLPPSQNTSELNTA
CDK4, sequence (P11802 2-303 limits assumed): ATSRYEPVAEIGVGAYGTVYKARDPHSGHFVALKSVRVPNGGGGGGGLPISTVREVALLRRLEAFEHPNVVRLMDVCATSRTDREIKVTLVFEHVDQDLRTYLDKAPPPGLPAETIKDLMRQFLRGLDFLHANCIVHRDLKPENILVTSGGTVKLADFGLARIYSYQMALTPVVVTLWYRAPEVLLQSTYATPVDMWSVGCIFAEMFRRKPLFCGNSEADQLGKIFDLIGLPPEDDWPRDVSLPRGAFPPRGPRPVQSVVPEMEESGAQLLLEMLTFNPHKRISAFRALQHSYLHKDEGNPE

## CC(=O)Oc1ccccc1C(=O)O [aspirin]
NK4 promoter; 10 mM aspirin for 20 hr after 16 hrs with 50 μM IPTG
  induction of luciferase expression by IPTG: completely or almost completely abolished

## O=C([O-])c1ccccc1O.[Na+] [sodium salicylate]
NK4 promoter; 20 mM sodium salicylate for 20 hr after 16 hrs with 50 μM IPTG
  induction of luciferase expression by IPTG: completely or almost completely abolished

## CC(C)Cc1ccc(C(C)C(=O)O)cc1 (stereo not shown) [ibuprofen]
NK4 promoter; [1]
  induction of luciferase expression by IPTG: no significant difference

## p16^Ink4A (from UniProt P42771 1-156)
CDK4
  cells arrested in G1 after 24 hrs of IPTG treatment (FACS analysis of DNA content): 93%
CDK6
  cells arrested in G1 after 24 hrs of IPTG treatment (FACS analysis of DNA content): 93%

## COc1ccc2c(c1)c(CC(=O)O)c(C)n2C(=O)c1ccc(Cl)cc1 [indomethacin]
NK4 promoter; [1]
  induction of luciferase expression by IPTG: no significant difference

## CC1=C(CC(=O)O)c2cc(F)ccc2/C1=C\c1ccc([S+](C)[O-])cc1 (stereo not shown) [sulindac]
p21-inducible genes; 250 and 500 μM sulindac
  effects of IPTG on APP gene RNA: diminished
p21-inducible genes; absence of IPTG, sulindac 250 μM, 500 μM or 1 mM, 48 hrs
  NK4 gene expression (RNA): very little effect
p21-inducible genes; absence of IPTG, sulindac 250 μM-1 mM
  gene expression of all the other tested genes: dose-dependent increase
p21-inducible genes; compared with NK4, with and without IPTG, sulindac 250 μM-1 mM
  t-TGase RNA: Very similar results
p21-inducible genes; moderate dose of sulindac (250 μM)
  p21-induced transcription of most of the tested genes: inhibits the ability of p21 to induce transcription
p21-inducible genes; only by 250 μM sulindac
  effects of IPTG on CTGF gene RNA: diminished
  effects of IPTG on Mac2-binding protein (Mac2-BP) gene RNA: diminished
  effects of IPTG on p66Shc gene RNA: diminished
p21-inducible genes; presence of 50 μM IPTG, all concentrations of sulindac (250 μM, 500 μM, 1 mM), 48 hrs
  NK4 RNA levels: dose-dependent decrease
p21-inducible genes; presence of IPTG, highest dose of sulindac (1 mM)
  gene expression of all the other tested genes: did not decrease gene expression
p21-inducible genes; sulindac 250 μM, 500 μM, 1 mM
  IPTG-induced RNA levels of prosaposin: None of the tested sulindac concentrations produced a significant decrease
  IPTG-induced RNA levels of superoxide dismutase 2 (SOD2): None of the tested sulindac concentrations produced a significant decrease
NK4 promoter; 1 mM sulindac for 20 hr after 16 hrs with 50 μM IPTG
  induction of luciferase expression by IPTG: completely or almost completely abolished
